Laboratory results taken from patent US8471005B2 (Cephalon, Inc., priority 2008, dated 2013).
pIC50: −log10 of the molar value. Where two headings read alike, the source gives them in different places.

Experiments:
ALK = molecular target: T1, ALK (Homo sapiens, UniProt Q9UM73); experiment: ALK Kinase Assay (ELISA/TRF, PLC-γ substrate); type: biochemical; settings: read-out: ALK Potency
T1 construct: host or cells: baculovirus expression system
How it was run: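 First, plates are coated with substrate (phospholipase C-γ, 10 μg/mL, TBS). Next, 30 ng/ml ALK initiates phosphorylation for 15 min at 37° C. Then Eu-N1 PT66 antibody is added for detection, and a nonlinear dose-response fit of percent inhibition yields IC50.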

JAK2 = molecular target: T2, JAK2 (Homo sapiens, UniProt O60674); experiment: Recombinant Human JAK2 Kinase Assay (TRF); type: biochemical; settings: read-out: JAK2 Potency
T2 construct: host or cells: baculovirus expression system
T2 sequence (O60674 whole entry): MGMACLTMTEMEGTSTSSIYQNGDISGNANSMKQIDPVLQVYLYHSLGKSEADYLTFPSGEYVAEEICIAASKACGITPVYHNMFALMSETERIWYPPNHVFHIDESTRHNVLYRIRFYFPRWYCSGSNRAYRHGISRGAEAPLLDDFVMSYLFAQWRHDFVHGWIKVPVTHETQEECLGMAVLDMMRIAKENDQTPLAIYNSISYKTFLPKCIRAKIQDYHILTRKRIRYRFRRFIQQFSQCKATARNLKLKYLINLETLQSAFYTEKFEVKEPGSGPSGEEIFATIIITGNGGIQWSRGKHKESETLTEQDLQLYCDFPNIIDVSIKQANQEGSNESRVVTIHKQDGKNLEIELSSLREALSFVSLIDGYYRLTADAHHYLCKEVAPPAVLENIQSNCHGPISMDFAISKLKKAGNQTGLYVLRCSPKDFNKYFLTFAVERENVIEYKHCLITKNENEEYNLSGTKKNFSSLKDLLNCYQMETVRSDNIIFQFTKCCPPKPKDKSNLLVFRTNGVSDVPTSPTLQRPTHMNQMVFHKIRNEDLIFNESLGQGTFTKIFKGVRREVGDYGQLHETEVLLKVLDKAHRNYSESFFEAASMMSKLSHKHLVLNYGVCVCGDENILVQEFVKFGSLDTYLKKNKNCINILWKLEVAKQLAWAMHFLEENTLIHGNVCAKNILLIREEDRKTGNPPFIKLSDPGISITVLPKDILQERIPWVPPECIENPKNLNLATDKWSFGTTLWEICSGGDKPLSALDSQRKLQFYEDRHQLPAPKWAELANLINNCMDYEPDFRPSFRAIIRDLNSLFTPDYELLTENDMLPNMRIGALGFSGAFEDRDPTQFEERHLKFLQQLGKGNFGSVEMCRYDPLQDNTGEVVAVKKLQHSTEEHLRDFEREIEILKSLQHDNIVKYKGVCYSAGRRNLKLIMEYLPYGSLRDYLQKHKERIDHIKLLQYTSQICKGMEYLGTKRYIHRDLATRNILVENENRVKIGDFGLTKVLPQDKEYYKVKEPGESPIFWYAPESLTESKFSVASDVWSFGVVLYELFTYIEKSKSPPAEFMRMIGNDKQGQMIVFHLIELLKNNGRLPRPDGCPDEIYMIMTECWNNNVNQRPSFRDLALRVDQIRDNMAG
How it was run: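 TRF read-out: Eu-N1 PY100 anti-phosphotyrosine antibody detects product. Enzyme is baculovirus-expressed JAK2 at 15 ng/ml; substrate is a biotinyl 15-mer peptide bound to Neutravidin-coated wells. Buffer 20 mM HEPES pH 7.2, 0.2 μM ATP, 1 mM MnCl2, 0.1% BSA, 2.5% DMSO final; 20 min, RT.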

[1] = ALK kinase inhibition, 1 μM ATP
[2] = JAK2 kinase inhibition, 0.2 μM ATP

T1 sequence (Q9UM73 19-1620): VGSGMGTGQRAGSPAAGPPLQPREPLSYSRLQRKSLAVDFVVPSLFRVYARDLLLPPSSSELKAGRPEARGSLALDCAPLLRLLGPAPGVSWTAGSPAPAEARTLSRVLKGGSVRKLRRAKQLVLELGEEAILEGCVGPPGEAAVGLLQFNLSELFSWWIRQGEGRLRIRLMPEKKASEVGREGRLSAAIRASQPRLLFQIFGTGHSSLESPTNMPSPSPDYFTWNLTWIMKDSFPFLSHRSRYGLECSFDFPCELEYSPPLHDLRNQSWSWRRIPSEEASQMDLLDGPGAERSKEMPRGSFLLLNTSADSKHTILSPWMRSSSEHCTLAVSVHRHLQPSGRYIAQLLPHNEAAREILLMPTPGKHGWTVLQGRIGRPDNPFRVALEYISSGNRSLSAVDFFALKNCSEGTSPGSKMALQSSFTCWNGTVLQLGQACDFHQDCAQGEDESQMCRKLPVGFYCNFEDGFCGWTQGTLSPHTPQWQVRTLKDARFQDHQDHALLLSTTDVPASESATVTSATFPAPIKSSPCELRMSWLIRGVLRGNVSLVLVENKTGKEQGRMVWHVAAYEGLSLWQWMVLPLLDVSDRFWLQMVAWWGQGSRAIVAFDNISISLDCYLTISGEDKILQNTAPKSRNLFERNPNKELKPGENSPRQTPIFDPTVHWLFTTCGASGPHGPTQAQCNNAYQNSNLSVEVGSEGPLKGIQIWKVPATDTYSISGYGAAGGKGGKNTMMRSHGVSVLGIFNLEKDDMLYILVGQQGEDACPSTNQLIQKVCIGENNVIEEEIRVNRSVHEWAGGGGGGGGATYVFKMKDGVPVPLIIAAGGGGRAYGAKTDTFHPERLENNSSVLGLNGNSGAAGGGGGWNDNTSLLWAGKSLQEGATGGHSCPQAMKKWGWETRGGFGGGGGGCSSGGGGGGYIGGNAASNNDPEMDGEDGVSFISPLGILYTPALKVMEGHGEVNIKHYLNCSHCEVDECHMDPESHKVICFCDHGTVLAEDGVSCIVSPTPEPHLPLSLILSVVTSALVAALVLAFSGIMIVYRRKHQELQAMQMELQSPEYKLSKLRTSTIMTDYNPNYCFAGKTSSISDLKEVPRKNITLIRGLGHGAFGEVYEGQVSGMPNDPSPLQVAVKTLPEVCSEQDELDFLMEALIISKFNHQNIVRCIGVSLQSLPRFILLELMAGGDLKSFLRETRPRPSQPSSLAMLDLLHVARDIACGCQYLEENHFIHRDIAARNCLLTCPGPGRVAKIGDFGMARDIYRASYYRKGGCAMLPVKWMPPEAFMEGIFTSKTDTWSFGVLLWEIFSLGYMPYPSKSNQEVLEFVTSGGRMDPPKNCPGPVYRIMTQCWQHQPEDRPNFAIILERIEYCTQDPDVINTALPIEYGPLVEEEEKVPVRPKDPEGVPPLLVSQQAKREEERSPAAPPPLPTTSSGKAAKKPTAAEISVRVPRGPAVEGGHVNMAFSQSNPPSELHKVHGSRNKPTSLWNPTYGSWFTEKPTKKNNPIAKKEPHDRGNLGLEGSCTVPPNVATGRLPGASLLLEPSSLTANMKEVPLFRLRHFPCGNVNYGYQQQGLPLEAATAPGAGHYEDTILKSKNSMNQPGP

Molecule | pIC50 (ALK; [1]) | pIC50 (JAK2; [2]) | pIC50 (ALK; ALK Kinase Inhibition) | pIC50 (JAK2; JAK2 Kinase Inhibition)
CC(C)(C)NS(=O)(=O)c1cccc(-c2ccc3cnc(Nc4cccc(NS(C)(=O)=O)c4)nn23)c1 [Example 889, N-tert-Butyl-3-[2-(3-methanesulfonylamino-phenylamino)-pyrrolo[2,1-f][1,2,4]triazin-7-yl]-benzenesulfonamide] | 6.00 to 7.00 | > 7.00 | – | –
COc1cc(C2CCNCC2)ccc1Nc1ncc2ccc(-c3cccc(S(=O)(=O)NC(C)(C)C)c3)n2n1 [Example 691, N-tert-Butyl-3-[2-(2-methoxy-4-piperidin-4-yl-phenylamino)-pyrrolo[2,1-f][1,2,4]triazin-7-yl]-benzenesulfonamide] | > 7.00 | 6.00 to 7.00 | – | –
CS(=O)(=O)Nc1cccc(-c2ccc3cnc(Nc4ccc(F)c(N5CCOCC5)c4)nn23)c1 [Example 390, N-{3-[2-(4-Fluoro-3-morpholin-4-yl-phenylamino)-pyrrolo[2,1-f][1,2,4]triazin-7-yl]-phenyl}-methanesulfonamide] | – | – | 6.00 to 7.00 | > 7.00
2-Methyl-propane-2-sulfonic acid (3-{2-[4-(4-diethylamino-piperidin-1-yl)-phenylamino]-pyrrolo[2,1-f][1,2,4]triazin-7-yl}-phenyl)-amide [Example 1217] | > 7.00 | > 7.00 | – | –
CC(=O)N1CCCC(C)(C)c2ccc(Nc3ncc4ccc(-c5ccccc5N(C)S(C)(=O)=O)n4n3)cc21 [Example 1366, N-{2-[2-(1-Acetyl-5,5-dimethyl-2,3,4,5-tetrahydro-1H-benzo[b]azepin-8-ylamino)-pyrrolo[2,1-f][1,2,4]triazin-7-yl]-phenyl}-N-methyl-methanesulfonamide] | – | – | 6.00 to 7.00 | > 7.00
COc1ccc(-c2ccc3cnc(Nc4ccc5c(c4)N(C(C)=O)CCCC5)nn23)cn1 [Example 631, 1-{8-[7-(6-Methoxy-pyridin-3-yl)-pyrrolo[2,1-f][1,2,4]triazin-2-ylamino]-2,3,4,5-tetrahydro-benzo[b]azepin-1-yl}ethanone] | < 5.00 | > 7.00 | – | –
COc1cc(CN2C[C@@H](O)[C@H](O)C2)ccc1Nc1ncc2ccc(-c3ccccc3N(C)S(C)(=O)=O)n2n1 [Example 1236, N-(2-{2-[4-((3R,4R)-3,4-Dihydroxy-pyrrolidin-1-ylmethyl)-2-methoxy-phenylamino]-pyrrolo[2,1-f][1,2,4]triazin-7-yl}-phenyl)-N-methyl-methanesulfonamide] | > 7.00 | 5.00 to 6.00 | – | –
COc1cc(C2CCN(CC(N)=O)CC2)ccc1Nc1ncc2ccc(-c3ccccc3-n3cccn3)n2n1 [Example 854, 2-(4-{3-Methoxy-4-[7-(2-pyrazol-1-yl-phenyl)-pyrrolo[2,1-f][1,2,4]triazin-2-ylamino]-phenyl}-piperidin-1-yl)-acetamide] | > 7.00 | < 5.00 | – | –
C[C@H](O)CN1CCN(c2cc([S@@+](C)[O-])c(Nc3ncc4ccc(-c5ccccc5N(C)S(C)(=O)=O)n4n3)cc2F)CC1 [Example 1485, (R,S)—N-[2-(2-{5-Fluoro-4-[4-((S)-2-hydroxy-propyl)-piperazin-1-yl]-2-methanesulfinyl-phenylamino}-pyrrolo[2,1-f][1,2,4]triazin-7-yl)-phenyl]-N-methyl-methanesulfonamide] | – | – | 6.00 to 7.00 | > 7.00
CN1CCN(c2ccc(Nc3ncc4ccc(-c5cccc(CO)c5)n4n3)cc2)CC1 [Example 1498, (3-{2-[4-(4-Methyl-piperazin-1-yl)-phenylamino]-pyrrolo[2,1-f][1,2,4]triazin-7-yl}-phenyl)-methanol] | – | – | > 7.00 | > 7.00
COc1cc(N2CCN(C)CC2)ccc1Nc1ncc2ccc(-c3ccccc3S(=O)(=O)N(C)C)n2n1 [Example 35, 2-{2-[2-Methoxy-4-(4-methyl-piperazin-1-yl)-phenylamino]-pyrrolo[2,1-f][1,2,4]triazin-7-yl}-N,N-dimethyl-benzenesulfonamide] | – | – | 6.00 to 7.00 | 5.00 to 6.00
COc1cc(Cn2ccnc2C)ccc1Nc1ncc2ccc(-c3ccccc3OC)n2n1 [Example 506, [2-Methoxy-4-(2-methyl-imidazol-1-ylmethyl)-phenyl]-[7-(2-methoxy-phenyl)-pyrrolo[2,1-f][1,2,4]triazin-2-yl]-amine] | > 7.00 | 6.00 to 7.00 | – | –
CC(C)(C)OCc1cccc(-c2ccc3cnc(Nc4cccc(N5CCOCC5)c4)nn23)c1 [Example 1560, [7-(3-tert-Butoxymethyl-phenyl)-pyrrolo[2,1-f][1,2,4]triazin-2-yl]-(3-morpholin-4-yl-phenyl)-amine] | – | – | < 5.00 | > 7.00
CN1CCN(c2ccc(Nc3ncc4ccc(-c5ccccc5OCC(=O)N(C)C)n4n3)cc2F)CC1 [Example 1404, 2-(2-{2-[3-Fluoro-4-(4-methyl-piperazin-1-yl)-phenylamino]-pyrrolo[2,1-f][1,2,4]triazin-7-yl}-phenoxy)-N,N-dimethyl-acetamide] | – | – | 6.00 to 7.00 | > 7.00

Second part, the molecule after the results:

pIC50 (ALK; [1]) | pIC50 (JAK2; [2]) | pIC50 (ALK; ALK Kinase Inhibition) | pIC50 (JAK2; JAK2 Kinase Inhibition) | Molecule
5.00 to 6.00 | > 7.00 | – | – | CC(=O)Nc1cccc(Nc2ncc3ccc(-c4cccc(NC(=O)C(C)(C)C)c4)n3n2)c1 [Example 881, N-{3-[2-(3-Acetylamino-phenylamino)-pyrrolo[2,1-f][1,2,4]triazin-7-yl]-phenyl}-2,2-dimethyl-propionamide]
> 7.00 | > 7.00 | – | – | COc1cc(N2CCC(N3CCN(C)CC3)CC2)ccc1Nc1ncc2ccc(-c3ccc(Cl)nc3)n2n1 [Example 533, [7-(6-Chloro-pyridin-3-yl)-pyrrolo[2,1-f][1,2,4]triazin-2-yl]-{2-methoxy-4-[4-(4-methyl-piperazin-1-yl)-piperidin-1-yl]-phenyl}-amine]
5.00 to 6.00 | > 7.00 | – | – | COc1ccc(-c2ccc3cnc(Nc4ccc5c(c4)N(C)CCO5)nn23)cn1 [Example 644, [7-(6-Methoxy-pyridin-3-yl)-pyrrolo[2,1-f][1,2,4]triazin-2-yl]-(4-methyl-3,4-dihydro-2H-benzo[1,4]oxazin-6-yl)-amine]
> 7.00 | 6.00 to 7.00 | – | – | COc1cc(C2CCN(C[C@H](O)C(F)(F)F)CC2)ccc1Nc1ncc2ccc(-c3ccccc3OC)n2n1 [Example 799, (S)-1,1,1-Trifluoro-3-(4-{3-methoxy-4-[7-(2-methoxy-phenyl)-pyrrolo[2,1-f][1,2,4]triazin-2-ylamino]-phenyl}-piperidin-1-yl)-propan-2-ol]
> 7.00 | 5.00 to 6.00 | – | – | COc1cc(C2CCN(C(=O)CN(C)C)CC2)ccc1Nc1ncc2ccc(-c3ccccc3N(C)S(C)(=O)=O)n2n1 [Example 813, N-[2-(2-{4-[1-(2-Dimethylamino-acetyl)-piperidin-4-yl]-2-methoxy-phenylamino}-pyrrolo[2,1-f][1,2,4]triazin-7-yl)-phenyl]-N-methyl-methanesulfonamide]
– | – | 6.00 to 7.00 | > 7.00 | CN1CCN(c2ccc(Nc3ncc4cc5ccccc5n4n3)cc2)CC1 [Example 263, [4-(4-Methyl-piperazin-1-yl)-phenyl]-[1,2,4]triazino[1,6-a]indol-2-yl-amine]
5.00 to 6.00 | > 7.00 | – | – | CN1CCN(C)C(c2cccc(Nc3ncc4ccc(-c5cccc(S(=O)(=O)NC(C)(C)C)c5)n4n3)c2)C1=O (stereo not drawn) [Example 1077, N-tert-Butyl-3-{2-[3-(1,4-dimethyl-3-oxo-piperazin-2-yl)-phenylamino]-pyrrolo[2,1-f][1,2,4]triazin-7-yl}-benzenesulfonamide]
6.00 to 7.00 | > 7.00 | – | – | CN1CCN(c2ccc(Nc3ncc4ccc(-c5cccc(NS(C)(=O)=O)c5)n4n3)nc2)CC1 [Example 1194, N-(3-{2-[5-(4-Methyl-piperazin-1-yl)-pyridin-2-ylamino]-pyrrolo[2,1-f][1,2,4]triazin-7-yl}-phenyl)-methanesulfonamide]
5.00 to 6.00 | > 7.00 | – | – | COc1ccc(-c2ccc3cnc(Nc4cnn(CCN5CCOCC5)c4)nn23)cn1 [Example 1192, [7-(6-Methoxy-pyridin-3-yl)-pyrrolo[2,1-f][1,2,4]triazin-2-yl]-[1-(2-morpholin-4-yl-ethyl)-1H-pyrazol-4-yl]-amine]
< 5.00 | > 7.00 | – | – | CS(=O)(=O)c1ccc(-c2ccc3cnc(Nc4ccc5c(c4)NC(=O)C(NC(=O)C(F)(F)F)CC5)nn23)cc1 (stereo not drawn) [Example 1174, 2,2,2-Trifluoro-N-{8-[7-(4-methanesulfonyl-phenyl)-pyrrolo[2,1-f][1,2,4]triazin-2-ylamino]-2-oxo-2,3,4,5-tetrahydro-1H-benzo[b]azepin-3-yl}-acetamide]
6.00 to 7.00 | > 7.00 | – | – | Cn1cnc2ccc(Nc3ncc4ccc(-c5cccc(S(=O)(=O)NC(C)(C)C)c5)n4n3)cc21 [Example 1300, N-tert-Butyl-3-[2-(3-methyl-3H-benzimidazol-5-ylamino)-pyrrolo[2,1-f][1,2,4]triazin-7-yl]-benzenesulfonamide]
> 7.00 | > 7.00 | – | – | CN1CCc2cc(Nc3ncc4ccc(-c5cccc(S(=O)(=O)NC(C)(C)C)c5)n4n3)ccc2C1 [Example 921, N-tert-Butyl-3-[2-(2-methyl-1,2,3,4-tetrahydro-isoquinolin-6-ylamino)-pyrrolo[2,1-f][1,2,4]triazin-7-yl]-benzenesulfonamide]
> 7.00 | > 7.00 | – | – | OC[C@@H](O)CN1CCC(c2ccc(Nc3ncc4ccc(-c5cccc(Cl)c5)n4n3)cc2)CC1 [Example 1130, (S)-3-(4-{4-[7-(3-Chloro-phenyl)-pyrrolo[2,1-f][1,2,4]triazin-2-ylamino]-phenyl}-piperidin-1-yl)-propane-1,2-diol]
